Read-outs that look alike come from different tables or passages of the source.
What was measured:
Cyp2C8 = biological target: T1, Cyp2C8 (Homo sapiens, UniProt P10632); test: Cyp enzyme inhibition, human liver microsomes; assay type: in vitro ADME; conditions: 30 min pre-incubation
T1 construct: Human liver microsomes were pre-incubated with 7 concentrations; tissue Cyprotex/Evotec AG; host or cells: human liver microsomes
T1 sequence (P10632 1-490): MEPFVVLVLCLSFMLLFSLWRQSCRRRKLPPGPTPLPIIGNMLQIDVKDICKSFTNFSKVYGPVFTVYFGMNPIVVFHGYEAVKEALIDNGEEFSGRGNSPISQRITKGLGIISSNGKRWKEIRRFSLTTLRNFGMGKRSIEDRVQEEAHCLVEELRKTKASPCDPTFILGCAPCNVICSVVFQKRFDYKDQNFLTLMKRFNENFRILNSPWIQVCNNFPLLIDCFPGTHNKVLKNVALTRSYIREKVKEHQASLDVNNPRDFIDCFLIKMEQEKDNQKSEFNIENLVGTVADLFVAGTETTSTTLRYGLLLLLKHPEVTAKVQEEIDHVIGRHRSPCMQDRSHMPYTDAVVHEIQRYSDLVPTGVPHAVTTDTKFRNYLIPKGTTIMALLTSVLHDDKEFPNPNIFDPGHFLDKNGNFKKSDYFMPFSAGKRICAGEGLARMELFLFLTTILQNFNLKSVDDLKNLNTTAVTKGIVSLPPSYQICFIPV
Method: (§1) Cyp enzyme inhibition. Human liver microsomes were pre-incubated with 7 concentrations ([…], duplicate wells) of α-NETA for 30 min.

Cyp2C9 = biological target: T2, Cyp2C9 (Homo sapiens, UniProt P11712); test: Cyp enzyme inhibition, human liver microsomes; assay type: in vitro ADME; conditions: 30 min pre-incubation
T2 construct: Human liver microsomes were pre-incubated with 7 concentrations; tissue Cyprotex/Evotec AG; host or cells: human liver microsomes
Method: as §1

Cyp2B6 = biological target: T3, Cyp2B6 (Homo sapiens, UniProt P20813); test: Cyp enzyme inhibition, human liver microsomes; assay type: in vitro ADME; conditions: 30 min pre-incubation
T3 construct: Human liver microsomes were pre-incubated with 7 concentrations; tissue Cyprotex/Evotec AG; host or cells: human liver microsomes
T3 sequence (P20813 1-491): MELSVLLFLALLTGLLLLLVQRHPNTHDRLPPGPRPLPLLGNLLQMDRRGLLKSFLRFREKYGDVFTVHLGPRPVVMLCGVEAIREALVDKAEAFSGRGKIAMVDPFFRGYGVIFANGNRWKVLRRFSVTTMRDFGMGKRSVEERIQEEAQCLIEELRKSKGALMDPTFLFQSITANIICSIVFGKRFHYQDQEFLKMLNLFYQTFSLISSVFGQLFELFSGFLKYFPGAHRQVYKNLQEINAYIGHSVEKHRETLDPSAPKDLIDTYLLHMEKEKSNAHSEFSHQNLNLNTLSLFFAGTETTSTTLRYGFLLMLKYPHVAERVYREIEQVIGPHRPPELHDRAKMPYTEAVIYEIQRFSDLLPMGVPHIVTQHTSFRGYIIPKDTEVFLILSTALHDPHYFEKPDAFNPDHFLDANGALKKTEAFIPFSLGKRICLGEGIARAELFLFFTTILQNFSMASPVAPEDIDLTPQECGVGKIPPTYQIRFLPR
Method: as §1

Cyp2C19 = biological target: T4, Cyp2C19 (Homo sapiens, UniProt P33261); test: Cyp enzyme inhibition, human liver microsomes; assay type: in vitro ADME; conditions: 30 min pre-incubation
T4 construct: Human liver microsomes were pre-incubated with 7 concentrations; tissue Cyprotex/Evotec AG; host or cells: human liver microsomes
Method: as §1

CMKLR1 = biological target: T5, CMKLR1 (Homo sapiens, UniProt Q99788); test: β-arrestin recruitment assay (chemerin-mediated β-arrestin2 association with CMKLR1); assay type: cell-based
T5 construct: host or cells: CHO-K1 (PathHunter)
T5 sequence (Q99788 1-373): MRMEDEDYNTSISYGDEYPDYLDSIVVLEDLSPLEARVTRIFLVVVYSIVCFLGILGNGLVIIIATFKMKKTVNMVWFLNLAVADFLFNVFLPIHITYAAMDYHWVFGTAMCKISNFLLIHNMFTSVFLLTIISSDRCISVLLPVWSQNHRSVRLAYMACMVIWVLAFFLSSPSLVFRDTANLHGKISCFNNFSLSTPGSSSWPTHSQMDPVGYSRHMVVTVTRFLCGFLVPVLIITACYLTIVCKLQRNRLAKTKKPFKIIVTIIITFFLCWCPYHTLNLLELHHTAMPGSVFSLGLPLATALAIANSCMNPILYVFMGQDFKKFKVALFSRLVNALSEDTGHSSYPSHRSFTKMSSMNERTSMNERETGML
Method: FIG. 15A-15D. […] IC50 values were determined based on 6-point dose-response curves for each compound. (FIG. 15A) α-NETA. […] (FIG. 15A-15C) mean±SEM, n=3-18 independent experiments. […] 0.2 ml each compound (in 10% captisol) or vehicle control was administered by oral gavage beginning one day prior to psoriasis induction. Back skin thickness was measured daily and normalized to day 0. mean±SEM, n=10 mice for vehicle and α-NETA groups pooled from two independent trials; n=3 mice for (27) and (6) from one trial.
Cell culture. […] DiscoverX PathHunter® CHO-K1 CMKLR1 β-Arrestin Cells were grown in RPMI lacking phenol red (Gibco, Life Technologies), supplemented with L-glutamine, penicillin-streptomycin, sodium pyruvate, non-essential amino acid, BCS, hygromycin, and G418-sulfate.
β-arrestin recruitment assay. CMKLR1-CHO-β-Arrestin cells were seeded in 96 well plates at 1×10^5 cell/ml-100 ul/well and incubated overnight at 37° C., 5% CO2. The next day, media was removed and cells were pre-incubated in PBS with α-NETA or test compound (95 ul/well) in a 6 point dose response curve from 100 μM to 0.3 μM for 10 min at RT. (α-NETA and test compounds were reconstituted in DMSO; final DMSO concentration in each well was 0.1%). After 10 min, 5 ul of recombinant human chemerin (R&D Systems) at a final concentration of 20 nM was added to each well. Plates were incubated for 90 min at 37° C., 5% CO2. Media was then removed and 50 ul of chemiluminescent substrate (Tropix Gal-Screen, Applied Biosciences) was added. The plate was incubated for 1 hr at RT and luminescence was detected using the SpectraMax M5 plate reader (Molecular Devices). For each independent trial (single replicate dose curves), data was normalized to the maximum signal per compound tested and an IC50 value was generated using GraphPad Prism software. The average IC50 value for n independent trials (as specified in the table) is reported.

[1] = system: Salmonella typhimurium (TA100); test: Ames test for genotoxicity; conditions: concentrations up to at least 10 uM

T4 sequence (P33261 whole entry): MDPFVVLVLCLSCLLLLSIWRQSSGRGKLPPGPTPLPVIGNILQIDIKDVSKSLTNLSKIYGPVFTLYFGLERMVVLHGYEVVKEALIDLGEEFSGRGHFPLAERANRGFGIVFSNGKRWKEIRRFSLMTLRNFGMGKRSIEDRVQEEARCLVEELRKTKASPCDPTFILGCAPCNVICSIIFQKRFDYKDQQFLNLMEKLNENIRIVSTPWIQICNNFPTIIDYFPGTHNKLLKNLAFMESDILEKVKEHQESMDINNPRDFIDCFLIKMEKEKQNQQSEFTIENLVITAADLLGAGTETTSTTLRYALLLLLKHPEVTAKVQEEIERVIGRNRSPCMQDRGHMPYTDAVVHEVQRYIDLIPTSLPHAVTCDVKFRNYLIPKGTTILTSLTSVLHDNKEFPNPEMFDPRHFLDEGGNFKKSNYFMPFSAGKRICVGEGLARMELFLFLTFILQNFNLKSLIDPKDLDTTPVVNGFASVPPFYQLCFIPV
T2 sequence (P11712 whole entry): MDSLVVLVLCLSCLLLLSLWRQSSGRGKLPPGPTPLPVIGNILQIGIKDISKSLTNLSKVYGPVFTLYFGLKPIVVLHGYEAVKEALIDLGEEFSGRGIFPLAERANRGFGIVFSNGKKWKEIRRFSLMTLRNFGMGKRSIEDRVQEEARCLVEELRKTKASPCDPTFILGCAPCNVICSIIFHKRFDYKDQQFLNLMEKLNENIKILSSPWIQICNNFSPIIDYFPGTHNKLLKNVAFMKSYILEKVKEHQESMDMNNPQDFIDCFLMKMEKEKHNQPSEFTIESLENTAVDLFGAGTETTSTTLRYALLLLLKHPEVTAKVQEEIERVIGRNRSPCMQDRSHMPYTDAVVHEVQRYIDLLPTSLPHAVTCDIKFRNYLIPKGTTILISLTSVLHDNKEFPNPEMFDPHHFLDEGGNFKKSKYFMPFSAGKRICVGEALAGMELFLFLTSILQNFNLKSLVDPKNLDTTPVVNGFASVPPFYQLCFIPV

Compound `C[N+](C)(C)CCC(=O)c1cccc2ccccc12.[I-]` [α-NETA, 2-(α-naphthoyl) ethyltrimethylammonium iodide] has an IC50 (Cyp2C8) of 1.5 µM, an IC50 (Cyp2C9) of 14.6 µM and an IC50 (Cyp2B6) of 0.12 µM. The IC50 (Cyp2C19) was 84 µM, the IC50 (CMKLR1; Table 2, tertiary amines, chemerin 20 nM, CHO transfectants, read-out: β-arrestin IC50 μM mean ± SEM (n)) was 4.9 ± 1.5 µM and the IC50 (CMKLR1; initial studies, 4-5 years earlier, different source of α-NETA, read-out: β-arrestin2 inhibition IC50) was 0.38 µM. For the same compound, the IC50 (CMKLR1; values given in running text b220, read-out: β-arrestin2 assay IC50) was 2.3 µM and the “mutagenesis (reversion of an obligate histidine mutation)” value [1] was “did not induce mutagenesis”.
